Assays:
[1] = Stability of multibiotic agents in Simulated Intestinal Fluid (SIF); type: in vitro ADME; details: simulated intestinal fluid pH 6.7 with pancreatin, 37° C., 1 μM
Method in brief: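 Compounds at 1 μM final (from 1 mM DMSO stock) incubated at 37 °C with agitation in fresh SIF (FaSSIF plus pancreatin in pH 6.7 phosphate buffer). Aliquots taken at T0 and regular intervals, quenched with 1 volume acetonitrile. Degradation rate determined by LC/MS.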

[2] = Stability of multibiotic agents in Simulated Gastric Fluid (SGF); type: in vitro ADME; details: simulated gastric fluid pH 1.6 with pepsin, 37° C., 1 μM
Method in brief: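 Compounds were incubated at 1 μM final at 37 °C in simulated gastric fluid containing NaCl, pH 1.6, with FaSSIF powder and 0.1 mg/mL pepsin. Aliquots were taken at T0 and at regular intervals and quenched with acetonitrile. Degradation rates were determined by LC/MS.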

SMILES | Assay 3 (SIF) (% @ Remaining 4 hours) [1] | Assay 2 (SGF) (% Remaining @ 4 hours) [2]
O=C(Cc1c[nH]c2ccccc12)OC[C@@H](O)[C@H](COC(=O)Cc1c[nH]c2ccccc12)OC(=O)Cc1c[nH]c2ccccc12 [Example 104, [(2R,3S)-2-hydroxy-3,4-bis[[2-(1H-indol-3-yl)acetyl]oxy]butyl] 2-(1H-indol-3-yl)acetate] | B (25-75% of the tested compound remaining) | C (>75% of the tested compound remaining)
O=C(Cc1c[nH]c2ccccc12)OC[C@H](OC(=O)Cc1c[nH]c2ccccc12)[C@@H](COC(=O)Cc1c[nH]c2ccccc12)OC(=O)Cc1c[nH]c2ccccc12 [Example 105, [(2R,3S)-2,3,4-tris[[2-(1H-indol-3-yl)acetyl]oxy]butyl] 2-(1H-indol-3-yl)acetate] | B (25-75% of the tested compound remaining) | C (>75% of the tested compound remaining)
O=C(Cc1c[nH]c2ccccc12)OC[C@@H](OC(=O)Cc1c[nH]c2ccccc12)[C@H]1OC[C@H](OC(=O)Cc2c[nH]c3ccccc23)[C@H]1OC(=O)Cc1c[nH]c2ccccc12 [Example 106, [(2R)-2-[(2R,3R,4S)-3,4-bis[[2-(1H-indol-3-yl)acetyl]oxy]tetrahydrofuran-2-yl]-2-[2-(1H-indol-3-yl)acetyl]oxy-ethyl] 2-(1H-indol-3-yl)acetate] | C (>75% of the tested compound remaining) | C (>75% of the tested compound remaining)
O=C(CCc1c[nH]c2ccccc12)OC[C@@H](OC(=O)CCc1c[nH]c2ccccc12)[C@H]1OC[C@H](OC(=O)CCc2c[nH]c3ccccc23)[C@H]1OC(=O)CCc1c[nH]c2ccccc12 [Example 107, [(2R)-2-[(2R,3R,4S)-3,4-bis[3-(1H-indol-3-yl)propanoyloxy]tetrahydrofuran-2-yl]-2-[3-(1H-indol-3-yl)propanoyloxy]ethyl] 3-(1H-indol-3-yl)propanoate] | B (25-75% of the tested compound remaining) | C (>75% of the tested compound remaining)
CCCC(=O)O[C@H]1CO[C@H]2[C@@H]1OC[C@H]2OC(=O)CCC [Example 108, [(3S,3aR,6R,6aR)-6-butanoyloxy-2,3,3a,5,6,6a-hexahydrofuro[3,2-b]furan-3-yl] butanoate] | B (25-75% of the tested compound remaining) | C (>75% of the tested compound remaining)
O=C(CCc1c[nH]c2ccccc12)O[C@H]1CO[C@H]2[C@@H]1OC[C@H]2OC(=O)CCc1c[nH]c2ccccc12 [Example 110, [(3S,3aR,6R,6aR)-6-[3-(1H-indol-3-yl)propanoyloxy]-2,3,3a,5,6,6a-hexahydrofuro[3,2-b]furan-3-yl] 3-(1H-indol-3-yl) propanoate] | A (<25% of the tested compound remaining) | C (>75% of the tested compound remaining)
C[C@@H](O)CC(=O)OCCCNC(=O)[C@H](OC(=O)C[C@@H](C)O)C(C)(C)COC(=O)C[C@@H](C)O [Example 111, 3-[[(2R)-2,4-bis[[(3R)-3-hydroxybutanoyl]oxy]-3,3-dimethyl-butanoyl]amino]propyl (3R)-3-hydroxybutanoate] | C (>75% of the tested compound remaining) | C (>75% of the tested compound remaining)
C[C@@H](O)CC(=O)OCC(C)(C)[C@@H](OC(=O)C[C@@H](C)O)C(=O)NCCC(N)=O [Example 114, [(3R)-4-[(3-amino-3-oxo-propyl)amino]-3-[(3R)-3-hydroxybutanoyl]oxy-2,2-dimethyl-4-oxo-butyl] (3R)-3-hydroxybutanoate] | C (>75% of the tested compound remaining) | C (>75% of the tested compound remaining)
CC(=O)CC(=O)O[C@H]1CO[C@H]2[C@@H]1OC[C@H]2OC(=O)CC(C)=O [Example 115, [(3S,3aR,6R,6aR)-6-(3-oxobutanoyloxy)-2,3,3a,5,6,6a-hexahydrofuro[3,2-b]furan-3-yl] 3-oxobutanoate] | B (25-75% of the tested compound remaining) | C (>75% of the tested compound remaining)
CCCC(=O)Nc1ccc(O)c(C(=O)O)c1 [Example 116, 5-(butanoylamino)-2-hydroxy-benzoic acid] | C (>75% of the tested compound remaining) | C (>75% of the tested compound remaining)
CCCC(=O)O[C@@H]1[C@H](OC(=O)CCC)COC(Oc2ccc(N)cc2C(=O)O)[C@@H]1OC(=O)CCC (stereo partly drawn) [Example 117, 5-amino-2-[(3R,4R,5R)-3,4,5-tri(butanoyloxy)tetrahydropyran-2-yl]oxy-benzoic acid] | C (>75% of the tested compound remaining) | C (>75% of the tested compound remaining)
CC(=O)Oc1ccc(/C=C/c2cc(OC(C)=O)cc(OC(C)=O)c2)cc1 [Example 118, [(E)-2-(3,5-diacetoxyphenyl)vinyl]phenyl] acetate] | C (>75% of the tested compound remaining) | C (>75% of the tested compound remaining)
CCCC(=O)O[C@H](C)CC(=O)Oc1ccc2c(c1)oc(=O)c1cc(OC(=O)C[C@@H](C)OC(=O)CCC)c(OC(=O)C[C@@H](C)OC(=O)CCC)cc12 [Example 122, [8,9-bis[[(3R)-3-butanoyloxybutanoyl]oxy]-6-oxo-benzo[c]chromen-3-yl] (3R)-3-butanoyloxybutanoate] | A (<25% of the tested compound remaining) | C (>75% of the tested compound remaining)
O=C(/C=C/c1c[nH]c2ccccc12)O[C@H]1CO[C@H]2[C@@H]1OC[C@H]2OC(=O)/C=C/c1c[nH]c2ccccc12 [Example 123, [(3R,3aR,6S,6aR)-6-[(E)-3-(1H-indol-3-yl)prop-2-enoyl]oxy-2,3,3a,5,6,6a-hexahydrofuro[3,2-b]furan-3-yl] (E)-3-(1H-indol-3-yl)prop-2-enoate] | C (>75% of the tested compound remaining) | C (>75% of the tested compound remaining)
CC(C)(COC(=O)/C=C/c1c[nH]c2ccccc12)[C@@H](OC(=O)/C=C/c1c[nH]c2ccccc12)C(=O)NCCC(N)=O [Example 124, [(3R)-4-[(3-amino-3-oxo-propyl)amino]-3-[(E)-3-(1H-indol-3-yl)prop-2-enoyl]oxy-2,2-dimethyl-4-oxo-butyl] (E)-3-(1H-indol-3-yl)prop-2-enoate] | C (>75% of the tested compound remaining) | C (>75% of the tested compound remaining)
CC(C)(COC(=O)/C=C/c1c[nH]c2ccccc12)[C@@H](OC(=O)/C=C/c1c[nH]c2ccccc12)C(=O)NCCCOC(=O)/C=C/c1c[nH]c2ccccc12 [Example 125, 3-[[(2R)-2,4-bis[[(E)-3-(1H-indol-3-yl)prop-2-enoyl]oxy]-3,3-dimethyl-butanoyl]amino]propyl (E)-3-(1H-indol-3-yl)prop-2-enoate] | C (>75% of the tested compound remaining) | C (>75% of the tested compound remaining)
CCCC(=O)NCCCNC(=O)CCC [Example 126, N-[3-(butanoylamino)propyl]butanamide] | C (>75% of the tested compound remaining) | C (>75% of the tested compound remaining)
CCCC(=O)NCCCCN(CCCNC(=O)CCC)C(=O)CCC [Example 127, N-[4-[butanoyl-[3-(butanoylamino)propyl]amino]butyl]butanamide] | C (>75% of the tested compound remaining) | C (>75% of the tested compound remaining)
CCCC(=O)NCCCN(CCCCN(CCCNC(=O)CCC)C(=O)CCC)C(=O)CCC [Example 128, N-[3-[butanoyl-[4-[butanoyl-[3-(butanoylamino)propyl]amino]butyl]amino]propyl]butanamide] | C (>75% of the tested compound remaining) | C (>75% of the tested compound remaining)
CCCC(=O)NCCCN(CCCNC(=O)CCC)C(=O)CCC [Example 129, N-[3-[butanoyl-[3-(butanoylamino)propyl]amino]propyl]butanamide] | C (>75% of the tested compound remaining) | C (>75% of the tested compound remaining)
CCCC(=O)N1CCN(C(=O)CCC)CC1 [Example 130, 1-(4-butanoylpiperazin-1-yl)butan-1-one] | C (>75% of the tested compound remaining) | C (>75% of the tested compound remaining)
CCCC(=O)N(C)CCCN(C)C(=O)CCC [Example 131, N-[3-[butanoyl(methyl)amino]propyl]-N-methyl-butanamide] | C (>75% of the tested compound remaining) | C (>75% of the tested compound remaining)
CCCC(=O)N[C@H]1CC[C@H](NC(=O)CCC)CC1 [Example 132, trans-N-[4-(butanoylamino)cyclohexyl]butanamide] | C (>75% of the tested compound remaining) | C (>75% of the tested compound remaining)
CCCC(=O)NCCC[C@H](NC(=O)CCC)C(=O)O [Example 133, (2S)-2,5-bis(butanoylamino)pentanoic acid] | C (>75% of the tested compound remaining) | C (>75% of the tested compound remaining)

Reference: patent US20230293458A1, “MULTIBIOTIC AGENTS AND METHODS OF USING THE SAME” (Flagship Pioneering Innovations V, Inc., priority 2017, published 2023)
